From the supplement of paper PMC13380429

Experiments:
[1] = tested on: A549-ACE2 infected with SARS-CoV-2; test: cell count relative to DMSO; higher = less toxic; settings: 24 h
Caco-2 [2] = test: cell viability relative to DMSO; higher = less toxic; settings: 72 h
HepG2 [3] = test: as above; settings: 72 h
U2OS [4] = test: as above; settings: 72 h
Vero E6 [5] = test: as above; settings: 72 h
[6] = tested on: A549-ACE2 infected with SARS-CoV-2; test: SARS-CoV-2 infection rate relative to DMSO; higher = more infection; settings: 24 h
A549-ACE2 [7] = test: phospholipidosis EC50; higher = less potent phospholipidosis inducer
A549-ACE2 [8] = test: drug-induced phospholipidosis relative to tamoxifen; higher = more phospholipidosis
[9] = tested on: A549-ACE2 infected with SARS-CoV-2; test: morphology score (similarity to uninfected cells); higher = more like uninfected cells; settings: 24 h
Caco-2 [10] = test: relative viability EC50 (midpoint between 100% and the lowest measured viability); higher = less toxic; settings: 72 h
HepG2 [11] = test: as above; settings: 72 h
U2OS [12] = test: as above; settings: 72 h
Caco-2 [13] = test: drug sensitivity score (DSS) for viability; higher = more toxic; extreme values may be limits of the assay; settings: 72 h
HepG2 [14] = test: as above; settings: 72 h
U2OS [15] = test: as above; settings: 72 h
Vero E6 [16] = test: as above; settings: 72 h
Calu-3 [17] = test: cell viability relative to DMSO; higher = less toxic; settings: 72 h
Vero E6 [18] = test: relative viability EC50 (midpoint between 100% and the lowest measured viability); higher = less toxic; settings: 72 h
Calu-3 [19] = test: drug sensitivity score (DSS) for viability; higher = more toxic; extreme values may be limits of the assay; settings: 72 h

**Q.** What does the source list for `N=C(NCCCCCCNC(=N)NC(=N)Nc1ccc(Cl)cc1)NC(=N)Nc1ccc(Cl)cc1` [chlorhexidine]?
**A.** cell count ([1]; 0.1 µM): 103%; cell count ([1]; 0.3 µM): 99%; cell count ([1]; 1 µM): 107%; cell count ([1]; 3 µM): 106%; cell viability (Caco-2 [2]; 1 nM): 99.3%; cell viability (Caco-2 [2]; 10 nM): 90%; cell viability (Caco-2 [2]; 100 nM): 98.1%; cell viability (Caco-2 [2]; 1000 nM): 100%; cell viability (Caco-2 [2]; 10000 nM): 16.4%; cell viability (HepG2 [3]; 1 nM): 101%; cell viability (HepG2 [3]; 10 nM): 103%; cell viability (HepG2 [3]; 100 nM): 87%; cell viability (HepG2 [3]; 1000 nM): 90.9%; cell viability (HepG2 [3]; 10000 nM): 10.1%; cell viability (U2OS [4]; 1 nM): 99.9%; cell viability (U2OS [4]; 10 nM): 101%; cell viability (U2OS [4]; 100 nM): 95.9%; cell viability (U2OS [4]; 1000 nM): 100%; cell viability (U2OS [4]; 10000 nM): 32.2%; cell viability (Vero E6 [5]; 1 nM): 96.5%; cell viability (Vero E6 [5]; 10 nM): 99%; cell viability (Vero E6 [5]; 100 nM): 97.9%; cell viability (Vero E6 [5]; 1000 nM): 95.2%; cell viability (Vero E6 [5]; 10000 nM): 56.1%; SARS-CoV-2 infection rate ([6]; 0.1 µM): 95%; SARS-CoV-2 infection rate ([6]; 0.3 µM): 90%; SARS-CoV-2 infection rate ([6]; 1 µM): 91%; SARS-CoV-2 infection rate ([6]; 3 µM): 93%; phospholipidosis EC50 (A549-ACE2 [7]; 24 h): 9.72 µM; phospholipidosis EC50 (A549-ACE2 [7]; 48 h): 7.36 µM; drug-induced phospholipidosis (A549-ACE2 [8]; 0.3 µM, 24 h): -0.01%; drug-induced phospholipidosis (A549-ACE2 [8]; 0.3 µM, 48 h): 3.12%; drug-induced phospholipidosis (A549-ACE2 [8]; 0.3 µM, 72 h): 3.95%; drug-induced phospholipidosis (A549-ACE2 [8]; 0.833333 µM, 24 h): -1.75%; drug-induced phospholipidosis (A549-ACE2 [8]; 0.833333 µM, 48 h): 2.84%; drug-induced phospholipidosis (A549-ACE2 [8]; 0.833333 µM, 72 h): 2.67%; drug-induced phospholipidosis (A549-ACE2 [8]; 3.33333 µM, 24 h): 7.04%; drug-induced phospholipidosis (A549-ACE2 [8]; 3.33333 µM, 48 h): 15.7%; drug-induced phospholipidosis (A549-ACE2 [8]; 3.33333 µM, 72 h): 18.9%; drug-induced phospholipidosis (A549-ACE2 [8]; 6.66667 µM, 24 h): 31.6%; drug-induced phospholipidosis (A549-ACE2 [8]; 6.66667 µM, 48 h): 40.3%; drug-induced phospholipidosis (A549-ACE2 [8]; 6.66667 µM, 72 h): 39.3%; drug-induced phospholipidosis (A549-ACE2 [8]; 10 µM, 24 h): 58.6%; drug-induced phospholipidosis (A549-ACE2 [8]; 10 µM, 48 h): 57.2%; drug-induced phospholipidosis (A549-ACE2 [8]; 10 µM, 72 h): 61.2%; drug-induced phospholipidosis (A549-ACE2 [8]; 30 µM, 24 h): 105%; morphology score ([9]; 0.1 µM): -0.01; morphology score ([9]; 0.3 µM): 0.17; morphology score ([9]; 1 µM): 0.17; morphology score ([9]; 3 µM): -0.05; relative viability EC50 (Caco-2 [10]): 3.19 µM; relative viability EC50 (HepG2 [11]): 2.32 µM; relative viability EC50 (U2OS [12]): 3.19 µM; drug sensitivity score (Caco-2 [13]): 4.6; drug sensitivity score (HepG2 [14]): 6.5; drug sensitivity score (U2OS [15]): 3.7; drug sensitivity score (Vero E6 [16]): 3

**Q.** What does the source list for `c1ccc2c(CCNc3ccc(Nc4ccncc4)cc3)c[nH]c2c1` [serdemetan]?
**A.** cell count ([1]; 0.3 µM): 102%; cell count ([1]; 3 µM): 106%; cell count ([1]; 10 µM): 115%; cell count ([1]; 30 µM): 82%; cell viability (Caco-2 [2]; 1 nM): 94.1%; cell viability (Caco-2 [2]; 10 nM): 94.2%; cell viability (Caco-2 [2]; 100 nM): 99%; cell viability (Caco-2 [2]; 1000 nM): 92.1%; cell viability (Caco-2 [2]; 10000 nM): 82.8%; cell viability (Calu-3 [17]; 1 nM): 98.5%; cell viability (Calu-3 [17]; 10 nM): 92.3%; cell viability (Calu-3 [17]; 100 nM): 105%; cell viability (Calu-3 [17]; 1000 nM): 92.8%; cell viability (Calu-3 [17]; 10000 nM): 51.7%; cell viability (HepG2 [3]; 1 nM): 94.8%; cell viability (HepG2 [3]; 10 nM): 99.5%; cell viability (HepG2 [3]; 100 nM): 98.6%; cell viability (HepG2 [3]; 1000 nM): 85.7%; cell viability (HepG2 [3]; 10000 nM): 45.6%; cell viability (U2OS [4]; 1 nM): 98.7%; cell viability (U2OS [4]; 10 nM): 97.5%; cell viability (U2OS [4]; 100 nM): 100%; cell viability (U2OS [4]; 1000 nM): 100%; cell viability (U2OS [4]; 10000 nM): 52.1%; cell viability (Vero E6 [5]; 1 nM): 93.1%; cell viability (Vero E6 [5]; 10 nM): 101%; cell viability (Vero E6 [5]; 100 nM): 97.4%; cell viability (Vero E6 [5]; 1000 nM): 93.5%; cell viability (Vero E6 [5]; 10000 nM): 87.9%; SARS-CoV-2 infection rate ([6]; 0.3 µM): 106%; SARS-CoV-2 infection rate ([6]; 3 µM): 72%; SARS-CoV-2 infection rate ([6]; 10 µM): 22%; SARS-CoV-2 infection rate ([6]; 30 µM): 43%; phospholipidosis EC50 (A549-ACE2 [7]; 24 h): 3.5 µM; phospholipidosis EC50 (A549-ACE2 [7]; 48 h): 3.63 µM; drug-induced phospholipidosis (A549-ACE2 [8]; 0.3 µM, 24 h): 0.45%; drug-induced phospholipidosis (A549-ACE2 [8]; 0.3 µM, 48 h): -0.34%; drug-induced phospholipidosis (A549-ACE2 [8]; 0.3 µM, 72 h): -1.75%; drug-induced phospholipidosis (A549-ACE2 [8]; 0.833333 µM, 24 h): 0.3%; drug-induced phospholipidosis (A549-ACE2 [8]; 0.833333 µM, 48 h): -2.16%; drug-induced phospholipidosis (A549-ACE2 [8]; 0.833333 µM, 72 h): -1.63%; drug-induced phospholipidosis (A549-ACE2 [8]; 3.33333 µM, 24 h): 12.7%; drug-induced phospholipidosis (A549-ACE2 [8]; 3.33333 µM, 48 h): 8.14%; drug-induced phospholipidosis (A549-ACE2 [8]; 3.33333 µM, 72 h): 6.6%; drug-induced phospholipidosis (A549-ACE2 [8]; 6.66667 µM, 24 h): 59.1%; drug-induced phospholipidosis (A549-ACE2 [8]; 6.66667 µM, 48 h): 56.1%; drug-induced phospholipidosis (A549-ACE2 [8]; 10 µM, 24 h): 43.6%; drug-induced phospholipidosis (A549-ACE2 [8]; 10 µM, 48 h): 35.4%; drug-induced phospholipidosis (A549-ACE2 [8]; 30 µM, 24 h): 17.2%; morphology score ([9]; 0.3 µM): -0.18; morphology score ([9]; 3 µM): 0.58; morphology score ([9]; 10 µM): 0.82; morphology score ([9]; 30 µM): 0.17; relative viability EC50 (Caco-2 [10]): > 10 µM; relative viability EC50 (HepG2 [11]): 1.51 µM; relative viability EC50 (Vero E6 [18]): > 10 µM; drug sensitivity score (Caco-2 [13]): 0.8; drug sensitivity score (Calu-3 [19]): 3.7; drug sensitivity score (HepG2 [14]): 5.1; drug sensitivity score (U2OS [15]): 2.5; drug sensitivity score (Vero E6 [16]): 0.1
